From US20060135611A1, “Use of 2,5-dihydroxybenzenesulfonic compounds for the treatment of disorders based on an impairment of no production and/or of regulation of edhf function” (priority 2002, published 2006)

Experiments:
[1] = tested on: human penile resistance arteries (HPRA); test: Vascular reactivity of resistance penile arteries (myograph, norepinephrine-contracted)
Procedure: Penile small arteries, helicine arteries (lumen diameter 150-400 μm), which are the terminal branches of deep penile arteries, were dissected by carefully removing the adhering trabecular tissue, and arterial ring segments (of 2 mm length) were subsequently mounted on two 40 μm wires on microvascular double Halpern-Mulvany myographs (J.P. Trading, Aarhus, Denmark) for isometric tension recordings. The vascular segments were allowed to equilibrate for 30 min in physiological salt solution (PSS) of the following composition (each given in mM): 119 NaCl, 4.6 KCl; 1.5 CaCl2, 1.2 MgCl2, 24.9 NaHCO3, 11 Glucose, 1, 2 KH2PO4, 0.027 EDTA in water at 37° C., continuously bubbled with a 95% O2/5% CO2 mixture to maintain a pH of 7.4. Passive tension and internal circumference of the vascular segments when relaxed in situ under a transmural pressure of […] (L100) were determined. The vascular segments were then set to an internal circumference eqivalent to 90% of L100, at which the force development was close to maximal as described in Mulvany MJ, Halpern W., “Contractile properties of small resistance arteries in spontaneously hypertensive and normotensive rats”, Circ. Res., 41, 19-26, 1977. The respective literature description is incorporated by reference and is part of the disclosure.
The preparations were then exposed to 125 mM K^+(KPSS, equimolar substitution of […] in PSS) and the contractile response was measured. The arteries were contracted with 1 μm norepinephrine (approximately 80% of KPSS induced contraction) and relaxation responses were evaluated by cumulative additions of compounds to the chambers.
Relaxation responses are expressed as percentage of total relaxation (loss in tone) induced by the addition of 0.1 mM papaverine HCl to the chambers at the end of the experiment. All data are expressed as mean ± standard error. Complete concentration-response or frequency-response curves were obtained and compared by a two-factor analysis of variance (ANOVA) statistical test using StatView sotfware tor Apple computers. Erectile responses were determined by measuring the area under the curve (AUC) of the intracavemosal pressure increases to rat cavemosal nerve stimulation normalized by mean arterial pressure values. The complete frequency-response curves were compared by a two-factor ANOVA test.

[2] = tested on: Male genetically diabetic rats (BB/wor rats); test: Erectile responses to cavernosal nerve stimulation in anesthetized diabetic rats; type: in vivo, rat; conditions: 10 mg/kg intravenous; 60 min after administration; 1, 3 and 10 Hz
Procedure: Male genetically diabetic rats (BB/wor rats, Mölegaard Breeding and Research, Svensved, Denmark) were anesthetized with ketamine (60 mg/kg). The surgical procedure consisted of dissection and isolation of the right cavernous nerve through an abdominal midline incision and exposure of penile crura through a transverse perineal incision. Intracavemosal pressure (ICP) measurements were accomplished by insertion into the right crus of a 23-gauge needle connected to a disposable pressure transducer (Abbott, Sligo, Ireland) and a data acquisition system (ADInstruments, Castle Hill, Australia). Left carotid artery and right external jugular vein were catheterized for constant blood pressure measurement and saline or drug infusion, respectively. Electrical stimulation was applied by a delicate platinum bipolar hook electrode connected to a stimulator and current amplifier (Cibertec, Madrid, Spain). […]
Relaxation responses are expressed as percentage of total relaxation (loss in tone) induced by the addition of 0.1 mM papaverine HCl to the chambers at the end of the experiment. All data are expressed as mean ± standard error. […] Erectile responses were determined by measuring the area under the curve (AUC) of the intracavemosal pressure increases to rat cavemosal nerve stimulation normalized by mean arterial pressure values. […]

O=S(=O)(O)c1cc(O)ccc1O [Calcium dobesilate, calcium 2,5-dihydroxybenzenesulfonate]
potentiating effects on ACh-induced relaxation of HPRA with APA and CTX ([1]; APA 100 nM + CTX 100 nM, NOS and COX inhibition): abolished the potentiating effects | effect on ACh-induced relaxation of HPRA ([1]; calcium dobesilate 10 μM): markedly potentiated | potentiation of ACh-induced relaxation of HPRA under combined inhibition of NOS and COX ([1]; calcium dobesilate 10 μM, NOS and COX inhibition): not significantly affected | potentiation of ACh-induced relaxation of HPRA at high potassium concentration ([1]; calcium dobesilate 10 μM, high potassium 35 mM): abolished | potentiating effects on ACh-induced relaxation of HPRA resistant to NOS and COX inhibition, with miconazole ([1]; miconazole 0.3 mM): significantly reduced the potentiating effects | erectile responses to cavernosal nerve stimulation (AUC of ICP increase normalized by mean arterial pressure) [2]: significantly enhanced
